Like-named read-outs stand apart in the source and are kept apart here. Blank lines part the entries; values can stand above or below the molecule they belong to.
Key:
human GnRHR [1] = molecular target: T1, human GnRHR (Homo sapiens (Human), UniProt P30968); assay: In vitro antagonistic activity screening (FLIPR calcium fluorescence, Leuprolide acetate stimulation); type: cell-based; settings: HEK293 cells stably expressing human GnRHR
Description: Cell: HEK293 cells stably expressing human GnRHR (WuXi AppTec (Shanghai) Co., Ltd.) Equipment: 384-well plate, Greiner; Vi-cell XR Cell Viability Analyzer, Beckman Coulter; incubator, Thermo.
Method: HEK293 cells stably expressing human GnRHR were seeded into a 384-well plate at a density of 20,000/well. Fluo-4 Direct™ No-wash Loading Buffer (Invitrogen) was added to each well the next day, and then the plate was put back into an incubator, incubated at 37° C. for 50 min, and then incubated at room temperature for 10 min. Test compounds were formulated in DMSO. […] Fluorescence values were determined using a FLIPR Tetra high throughput real-time fluorescence detection and assay system. Then 10 μL of Leuprolide acetate was added, and fluorescence values were determined. IC50 and IC90 of the compounds were calculated using Prism.

human GnRHR [2] = molecular target: T1, human GnRHR; assay: In vitro binding screening ([125I][D-Trp6]-LH-RH displacement, Chem-1 cell membranes)
Description: [D-Trp6]-LH-RH, PerkinElmer; [D-Trp6]-LH-RH, Abcam.
Equipment: MicroBeta2 LumiJET system, PerkinElmer.
Method: Chem-1 cell membranes stably expressing human GnRHR were resuspended in HEPES at pH 7.4. […] [D-Trp6]-LH-RH was used in the non-specific binding assay. Cell membranes were collected by filtration under vacuum and washed before liquid scintillation. The binding IC50 and IC90 of the compounds were calculated using Prism.

[3] = molecular target: human hERG potassium channel (Homo sapiens (Human), UniProt Q12809); assay: hERG test (QPatch automated patch clamp, CHO cells); type: cell-based; settings: for Inhibitory activity on the human hERG potassium channel compared with Relugolix: in words, vs Relugolix
Description: Cell: CHO cells stably expressing a human hERG potassium channel (WuXi AppTec (Shanghai) Co., Ltd.) Reagent: physiological solution (pH=7.4): 140 mM NaCl, 4 mM KCl, 2 mM CaCl2), 1 mM MgCl2, 5 mM Glucose, 10 mM HEPES, Osmolarity: about 298 mOsm; external solution (pH=7.4): 80 mM NaCl, 4 mM KCl, 2 mM CaCl2), 1 mM MgCl2, 5 mM Glucose, 60 mM NMDG, 10 mM HEPES, Osmolarity: about 289 mOsm; internal solution (pH=7.4): 10 mM NaCl, 10 mM KCl, 110 mM KF, 10 mM HEPES, EGTA: […], Osmolarity: about 280 mOsm.
Equipment: QPatch high-throughput automated patch clamp system, Sophion.
Method: CHO cells stably expressing a human hERG potassium channel were digested with TrypLE and resuspended in a physiological solution for later use. The single-cell high-impedance sealing and whole-cell mode formation processes were automatically completed by Qpatch. The clamping voltage for the cells was −80 mV. Then a voltage of −50 mV was applied for 80 ms to subtract (current) leakage, and a voltage of +20 mV was applied for 4800 ms to open the hERG channel. The voltage was then reduced to −50 mV and maintained for 5000 ms. This process was used for data collection and analysis. Finally, the voltage was returned to the clamping voltage (−80 mV, 1000 ms). This process was repeated every 20,000 ms. 40 μL of solvent control (external solution+DMSO) was added first, and the test was performed for […] to collect baseline data. Then, 40 μL of each of the test compounds was added at various concentrations, and the test was performed for no less than […]. The compounds were each dissolved in DMSO, with test concentrations being 0.30 μM, 1.00 μM, 3.00 μM, 10.00 μM, and 30.00 μM. The IC50 data for the hERG test were obtained by analyzing using DataControl, Excel2013, and Prism.

[4] = Caco-2 two-way permeability and efflux; type: in vitro ADME; settings: human; for efflux ratio at 120 min: Caco-2
Description: (§1) Instrument: water purification equipment, ELGA LabWate; biosafety cabinet, NUAIRE; thermostatic CO2 incubator, Thermo; microplate reader, PerkinElmer; LC-MS/MS, AB SCIEX.
(§2) Method: A Caco-2 monolayer cell model was used to determine the two-way permeability of the test substances and evaluate whether the test substances were transported by the efflux of a transporter. In the experiment, Caco-2 cells were seeded into a 96-well cell culture plate and cultured for 28 consecutive days for transport assay. The test substances were each administered on two sides. After being incubated for 120 min, the samples at the apical end A, at the basal end B, and with cell lysis were collected and quantitatively determined for the content of the test substances by using a liquid chromatography-tandem mass spectrometry (LC/MS/MS) method. The apparent permeability coefficient (Papp) in the direction from the apical end to the basal end (A-B) and in the direction from the basal end to the apical end (B-A) and the efflux ratio were calculated from the concentrations of the test substances.

[5] = Pharmacokinetics in SD rats (i.v. and i.g.); type: in vivo; settings: for bioavailability: i.g 12 mg/kg vs i.v 1 mg/kg, read-out: F (absolute bioavailability)
Description: (§3) Instrument: water purification equipment, Millipore; electronic balance, METTLER TOLEDO; high-speed benchtop centrifuge, Thermo; water bath thermostatic oscillator, Shanghai Yiheng Technical Co., Ltd.; vortex oscillator, Thermo; LC-MS/MS, AB SCIEX.
(§4) Method: all compounds were formulated in DMSO and 20% solutol. In the pharmacokinetic experiment, the administration dose for the intravenous group (i.v) was 1 mg/kg, and the administration dose for the intragastric group (i.g) was 12 mg/kg, each group containing 3 rats. Blood was collected from the orbit of the rats before (0 h) the administration and at set time points after administration. In the tissue distribution experiment, the rats were subjected to intragastric administration at a dose of 12 mg/kg. […] The […] in a heparinized EP tube and centrifuged at 13,500 rpm for 10 min to isolate the plasma. The pituitary was homogenized with water in a certain proportion. The plasma and pituitary homogenates were pre-treated and then analyzed by LC-MS/MS to determine the concentration of the test substances in the plasma and the pituitary. The plasma drug concentration data were processed in a non-compartmental model using WinNonlin™ Version 6.3 (Pharsight, Mountain View, CA) pharmacokinetic software.

[6] = Pituitary tissue distribution in SD rats after intragastric administration; type: in vivo; set-up: Plasma concentration / Pituitary concentration: unit not given here; settings: i.g 12 mg/kg; for Concentration in the pituitary relative to Relugolix: vs Relugolix; for Concentration in the pituitary relative to compound 2A: vs compound 2A
Description: as §3, §4

[7] = Metabolic stability in rat liver microsomes; type: in vitro ADME, SD rat; settings: Rat liver microsomes
Description: (§5) Liver Microsome: Rat Liver Microsome and Human Liver Microsome Reagent: NADPH, Roche Diagnostics Gmbh; ACN, Merck Chemical; Tolbutamide, Sigma. Instrument: water purification equipment, Millipore; electronic balance, METTLER TOLEDO; high-speed benchtop centrifuge, Thermo; water bath thermostatic oscillator, Shanghai Yiheng Technical Co., Ltd.; vortex oscillator, Thermo; LC-MS/MS, AB SCIEX. Method: the metabolic stability of test substances was evaluated by using SD rat and human liver microsomes. The test substances were incubated with liver microsomes from different species by using NADPH under a water bath at 37° C. A cold acetonitrile solution containing a Tolbutamide internal standard substance was added at a specified time point to terminate the reaction. The samples were pre-treated and then subjected to semi-quantitative analysis by LC-MS/MS. The retention times of the analytes and Tolbutamide internal standard, the acquisition of chromatograms, and the integration of chromatograms were processed using software Analyst (A Sciex, Framingham, Massachusetts, USA). The in vitro elimination rate constant Ke of the samples was obtained by converting the ratio of the peak area of the samples to the peak area of the internal standard into the residual percentage, and the in vitro clearance rate and the half-life of the test samples were calculated.

[8] = Metabolic stability in human liver microsomes; type: in vitro ADME
Description: as §5

Caco-2 cells = assay: Caco-2 two-way permeability and efflux; type: in vitro ADME
Description: as §1, §2

[9] = male, Sprague-Dawley (SD), rat, plasma, iv, i.v 1 mg/kg
[10] = male, Sprague-Dawley (SD), rat, plasma, po, i.g 12 mg/kg
[11] = intragastric group, vs Relugolix
[12] = intragastric group, vs compound 2A

T1 sequence (P30968 whole entry): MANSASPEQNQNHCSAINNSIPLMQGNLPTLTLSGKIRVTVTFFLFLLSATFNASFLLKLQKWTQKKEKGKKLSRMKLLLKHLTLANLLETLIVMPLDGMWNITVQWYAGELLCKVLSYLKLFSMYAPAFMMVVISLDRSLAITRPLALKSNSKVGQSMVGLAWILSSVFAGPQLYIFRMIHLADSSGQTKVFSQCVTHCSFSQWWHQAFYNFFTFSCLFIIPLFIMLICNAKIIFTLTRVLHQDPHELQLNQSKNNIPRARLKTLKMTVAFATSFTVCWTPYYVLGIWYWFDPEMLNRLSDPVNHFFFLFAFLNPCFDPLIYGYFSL
human hERG potassium channel, sequence (Q12809 whole entry): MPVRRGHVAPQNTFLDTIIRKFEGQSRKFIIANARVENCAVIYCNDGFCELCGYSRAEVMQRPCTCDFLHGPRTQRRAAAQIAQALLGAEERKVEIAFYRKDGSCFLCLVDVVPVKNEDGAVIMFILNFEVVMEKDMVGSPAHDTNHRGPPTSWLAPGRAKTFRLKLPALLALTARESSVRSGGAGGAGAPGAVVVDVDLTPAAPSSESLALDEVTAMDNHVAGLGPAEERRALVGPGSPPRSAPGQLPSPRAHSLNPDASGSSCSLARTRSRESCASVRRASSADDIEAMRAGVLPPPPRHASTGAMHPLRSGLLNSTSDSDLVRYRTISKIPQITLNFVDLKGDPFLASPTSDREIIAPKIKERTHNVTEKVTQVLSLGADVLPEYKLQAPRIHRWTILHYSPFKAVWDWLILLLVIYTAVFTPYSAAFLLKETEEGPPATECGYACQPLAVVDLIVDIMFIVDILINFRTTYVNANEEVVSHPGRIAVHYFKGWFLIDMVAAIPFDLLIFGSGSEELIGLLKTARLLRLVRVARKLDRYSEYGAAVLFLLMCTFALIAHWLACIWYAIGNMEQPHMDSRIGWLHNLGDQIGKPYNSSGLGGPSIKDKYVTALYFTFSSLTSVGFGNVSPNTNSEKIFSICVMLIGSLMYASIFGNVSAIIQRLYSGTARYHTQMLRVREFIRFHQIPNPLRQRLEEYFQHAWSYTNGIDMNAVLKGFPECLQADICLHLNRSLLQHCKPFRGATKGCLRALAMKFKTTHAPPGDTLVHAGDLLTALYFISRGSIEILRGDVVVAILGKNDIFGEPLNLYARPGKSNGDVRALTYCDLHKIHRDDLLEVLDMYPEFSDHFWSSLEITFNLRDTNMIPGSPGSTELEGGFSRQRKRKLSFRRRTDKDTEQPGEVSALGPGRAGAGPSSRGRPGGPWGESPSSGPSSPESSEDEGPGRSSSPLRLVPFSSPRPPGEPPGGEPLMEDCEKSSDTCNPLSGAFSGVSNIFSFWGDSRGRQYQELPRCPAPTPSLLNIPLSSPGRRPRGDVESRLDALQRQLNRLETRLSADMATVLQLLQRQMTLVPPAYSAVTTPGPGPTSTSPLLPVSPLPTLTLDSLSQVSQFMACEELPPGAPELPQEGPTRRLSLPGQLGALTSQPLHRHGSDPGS

IC50 (human GnRHR [1]; read-out: Functional IC50): 1.84 nM | IC90 (human GnRHR [1]; read-out: Functional IC90): 8.19 nM | IC90 (human GnRHR [2]): 13.2 nM | IC50 (human GnRHR [2]; Chem-1 cell membranes, 0.05 nM [125I]-[D-Trp6]-LH-RH): 0.87 nM | efflux ratio at 120 min ([4]; read-out: Efflux ratio): 1180 | Papp A→B at 120 min ([4]; Caco-2, 120 min incubation): 0.00816 ×10⁻⁶ cm/s | Papp B→A at 120 min ([4]; Caco-2, 120 min incubation): 9.65 ×10⁻⁶ cm/s | AUC(0-t) [5, 9]: 487 ± 150 ng·h/mL | C0 [5, 9]: 521 ± 322 ng/mL | MRT last [5, 9]: 4.14 ± 1.83 h | half-life [5, 9]: 398 ± 186 min | AUC(0-t) [5, 10]: 370 ± 109 ng·h/mL | Cmax [5, 10]: 69.9 ± 15.1 ng/mL | MRT last [5, 10]: 9.2 ± 2.3 h | half-life [5, 10]: 1080 ± 954 min | bioavailability ([5]; male, Sprague-Dawley (SD), rat, plasma, po): 6.33% | Tmax ([5]; male, Sprague-Dawley (SD), rat, plasma, po, i.g 12 mg/kg, read-out: Tmax): 15 min | Pituitary concentration ([6]; 1 h): 280 ± 80 | Plasma concentration ([6]; 1 h): 32.2 ± 18.0 | Pituitary concentration ([6]; 4 h): 279 ± 70 | Plasma concentration ([6]; 4 h): 13.3 ± 5.1 | Pituitary concentration ([6]; 12 h): 333 ± 90 | Plasma concentration ([6]; 12 h): 5.59 ± 1.55 | Kp at 1 h ([6]; male, Sprague-Dawley (SD), rat, pituitary/plasma, oral, 1 h): 8.7 | Kp at 4 h ([6]; male, Sprague-Dawley (SD), rat, pituitary/plasma, oral, 4 h): 21 | Kp at 12 h ([6]; male, Sprague-Dawley (SD), rat, pituitary/plasma, oral, 12 h): 59.6
SMILES: CCNC(=O)Nc1ccc(-c2sc3c(c2CN(C)C)c(=O)n(-c2ccc(OC)nn2)c(=O)n3Cc2c(F)cccc2F)cc1 [Compound 2A]
IC50 ([3]; CHO cells stably expressing human hERG potassium channel): 6.07 µM | Inhibitory activity on the human hERG potassium channel compared with Relugolix [3]: equal to or less than that of Relugolix

Residual content at 60 min ([7]; NADPH, 37° C.): 61.0% | CLint scaled ([7]; SD): 28.4 mL/min/kg | half-life ([7]; SD): 87.7 min | microsomal CLint ([7]; SD, read-out: CLint(mic)): 15.8 µL/min/mg | CLint scaled [8]: 4.86 mL/min/kg | half-life [8]: 257 min | Residual content at 60 min ([8]; NADPH, 37° C.): 83.8% | microsomal CLint ([8]; read-out: CLint(mic)): 5.4 µL/min/mg | efflux ratio at 120 min [4]: ~6 | Efflux ratio (Caco-2 cells; Caco-2): 294 | Mean Papp A to B (Caco-2 cells; Caco-2, 120 min incubation): 0.0142 10^−6 cm/s | Mean Papp B to A (Caco-2 cells; Caco-2, 120 min incubation): 4.19 10^−6 cm/s | AUClast relative to Relugolix [5, 11]: 2.45 fold | Absolute bioavailability relative to Relugolix [5, 11]: 3.47 fold | Cmax relative to Relugolix [5, 11]: 3.63 fold | AUClast relative to compound 2A [5, 12]: 0.96 fold | Absolute bioavailability relative to compound 2A [5, 12]: 3.14 fold | Cmax relative to compound 2A [5, 12]: 1.12 fold | bioavailability ([5]; male, rat, plasma, oral): 19.9% | Pituitary concentration ([6]; 1 h): 2250 ± 474 | Pituitary/plasma ([6]; 1 h): 56.9 | Plasma concentration ([6]; 1 h): 39.5 ± 14.0 | Concentration in the pituitary relative to Relugolix ([6]; 1 h): 2.38 fold | Concentration in the pituitary relative to compound 2A ([6]; 1 h): 8.04 fold | Pituitary concentration ([6]; 4 h): 1841 ± 636 | Pituitary/plasma ([6]; 4 h): 80.8 | Plasma concentration ([6]; 4 h): 22.8 ± 2.5 | Concentration in the pituitary relative to Relugolix ([6]; 4 h): 1.48 fold | Concentration in the pituitary relative to compound 2A ([6]; 4 h): 6.60 fold | Pituitary concentration ([6]; 12 h): 1254 ± 494 | Pituitary/plasma ([6]; 12 h): 129 | Plasma concentration ([6]; 12 h): 9.70 ± 3.10 | Concentration in the pituitary relative to Relugolix ([6]; 12 h): 2.46 fold | Concentration in the pituitary relative to compound 2A ([6]; 12 h): 3.77 fold
SMILES: CCNC(=O)Nc1ccc(-c2sc3c(c2CN(C)C)c(=O)n(-c2ccc(OC)nn2)c(=O)n3Cc2c(F)cccc2F)cn1 [Compound 2]
Inhibitory activity on the human hERG potassium channel compared with Relugolix [3]: equal to or less than that of Relugolix

Reference: patent US20250000864A1, “GONADOTROPIN-RELEASING HORMONE ANTAGONIST, AND PREPARATION METHOD THEREFOR AND USE THEREOF” (SHANDONG LUYE PHARMACEUTICAL CO., LTD., priority 2021, published 2025)
